Values belong to the molecule of their own block, whether it stands above or below them. Where a SMILES comes first, the peptide text is derived from it. Bridges are numbered along the chain shown (N, C = ends). [ ]: non-standard residue; d: D form. The star is where a group is joined. X1 = O=C(O)CN1CCN(CC(=O)O)CCN(CC(=O)N[C@@H](CS(=O)(=O)O)C(=O)N[C@@H](CCCCNC(=O)CCCc2ccc(I)cc2)C(=O)*)CCN(CC(=O)O)CC1; 2Nal = N[C@@H](Cc1ccc2ccccc2c1)C(=O)O; Lys(iPr) = CC(C)NCCCC[C@H](N)C(=O)O
Assay: in vivo
Parameters: species or system mice
Conditions: male, mouse, iv, total radioactivity
Method: The Z138 Mantle cell lymphoma cell line was purchased from the American Type Culture Collection (ATCC©CRL-3001). The cell line was cultured in a 5% CO2 atmosphere at 37° C. in a humidified incubator with IMDM medium supplemented with 10% fetal bovine serum, 100 I.U./mL penicillin, and 100 μg/mL streptomycin.
[^68Ga]GaCl3 was eluted from an iThemba Labs generator with a total of 4 mL of 0.1 M HCl. The eluted [^68Ga]GaCl3 solution was added to 2 mL of concentrated HCl. This radioactive mixture was then added to a DGA resin column and washed with 3 mL of 5 M HCl. The column was then dried with air and the [^68Ga]GaCl3 (0.10-0.50 GBq) was eluted with 0.5 mL of water into a vial containing a solution of the unlabeled precursor (25 μg) in 0.7 mL HEPES buffer (2 M, pH 5.3). The reaction mixture was heated in a microwave oven (Danby; DMW7700WDB) for 1 min at power setting 2. The mixture was purified by semi-prep HPLC and quality control was performed via analytical HPLC with the co-injection of the unlabeled standard with a one-twelfth of the radiotracer. Radiochemical yields (decay-corrected) were >50% and radiochemical purities were >95%.
Animal experiments were performed in accordance with guidelines established by the Canadian Council on Animal Care, under a research protocol approved by the Animal Ethics Committee of the University of British Columbia. For all studies, male NOD.Cg-Rag1tm1Momll2rgtm1Wjl/SzJ (NRG) mice were used and cells injected in a 100 μL solution of 1:1 ratio of PBS/Matrigel. For preclinical imaging and biodistribution studies, 5×10^6 cells of Z138, cells were subcutaneously inoculated on the left or right flank and tumors were grown to a size of 200-300 mm^3. […]
Under isoflurane anesthesia (2-2.5% isoflurane in 2 L/min 02), mice were injected intravenously with [^68Ga]Ga-BL34L6 or [^68Ga]Ga-BL34L7. Mice were euthanized by CO2 inhalation after anesthesia with isoflurane. Tissues were harvested, washed in PBS, patted dry, weighed, and then assayed radioactivity on a gamma counter. Counted radioactivities were converted to percentage injected dose per gram of tissue (% ID/g) using a calibration curve.

[1] = NOD.Cg-Rag1tm1Mom Il2rgtm1Wjl/SzJ (NRG), Biodistribution: Adrenals
[2] = NOD.Cg-Rag1tm1Mom Il2rgtm1Wjl/SzJ (NRG), Biodistribution: Bone
[3] = NOD.Cg-Rag1tm1Mom Il2rgtm1Wjl/SzJ (NRG), Biodistribution: Brain
[4] = NOD.Cg-Rag1tm1Mom Il2rgtm1Wjl/SzJ (NRG), Biodistribution: Heart
[5] = NOD.Cg-Rag1tm1Mom Il2rgtm1Wjl/SzJ (NRG), Biodistribution: Kidneys
[6] = NOD.Cg-Rag1tm1Mom Il2rgtm1Wjl/SzJ (NRG), Biodistribution: Liver
[7] = NOD.Cg-Rag1tm1Mom Il2rgtm1Wjl/SzJ (NRG), Biodistribution: Lungs
[8] = NOD.Cg-Rag1tm1Mom Il2rgtm1Wjl/SzJ (NRG), Biodistribution: Muscle
[9] = NOD.Cg-Rag1tm1Mom Il2rgtm1Wjl/SzJ (NRG), Biodistribution: Pancreas
[10] = NOD.Cg-Rag1tm1Mom Il2rgtm1Wjl/SzJ (NRG), Biodistribution: Small Intestine
[11] = NOD.Cg-Rag1tm1Mom Il2rgtm1Wjl/SzJ (NRG), Biodistribution: Spleen
[12] = NOD.Cg-Rag1tm1Mom Il2rgtm1Wjl/SzJ (NRG), Biodistribution: Z138 Tumor
[13] = NOD.Cg-Rag1tm1Mom Il2rgtm1Wjl/SzJ (NRG), Ratio Tumor-to-Blood
[14] = NOD.Cg-Rag1tm1Mom Il2rgtm1Wjl/SzJ (NRG), Ratio Tumor-to-Muscle
[15] = NOD.Cg-Rag1tm1Momll2rgtm1Wjl/SzJ (NRG), Biodistribution: Blood
[16] = NOD.Cg-Rag1tm1Momll2rgtm1Wjl/SzJ (NRG), Biodistribution: Stomach
[17] = NOD.Cg-Rag1tm1Momll2rgtm1Wjl/SzJ (NRG), Biodistribution: Testes
[18] = NOD.Cg-Rag1tm1Momll2rgtm1Wjl/SzJ (NRG), Ratio Tumor-to-Bone
[19] = NOD.Cg-Rag1tm1Momll2rgtm1Wjl/SzJ (NRG), Ratio Tumor-to-Kidney
[20] = NOD.Cg-Rag1tm1Momll2rgtm1Wjl/SzJ (NRG), Ratio Tumor-to-Muscle
[21] = NOD.Cg-Rag1tm1Momll2rgtm1Wjl/SzJ (NRG), Ratio Tumor-to-Pancreas

tissue uptake at 24 h [1]: 2.44 %ID/g | tissue uptake at 72 h [1]: 1.8 %ID/g | tissue uptake at 120 h [1]: 1.62 %ID/g | tissue uptake at 24 h [2]: 0.71 %ID/g | tissue uptake at 72 h [2]: 0.42 %ID/g | tissue uptake at 120 h [2]: 0.29 %ID/g | tissue uptake at 24 h [3]: 0.18 %ID/g | tissue uptake at 72 h [3]: 0.07 %ID/g | tissue uptake at 120 h [3]: 0.05 %ID/g | tissue uptake at 24 h [4]: 1.8 %ID/g | tissue uptake at 72 h [4]: 1.1 %ID/g | tissue uptake at 120 h [4]: 0.76 %ID/g | tissue uptake at 24 h [5]: 2.67 %ID/g | tissue uptake at 72 h [5]: 1.19 %ID/g | tissue uptake at 120 h [5]: 0.75 %ID/g | tissue uptake at 24 h [6]: 1.99 %ID/g | tissue uptake at 72 h [6]: 1.1 %ID/g | tissue uptake at 120 h [6]: 0.45 %ID/g | tissue uptake at 24 h [7]: 4.88 %ID/g | tissue uptake at 72 h [7]: 2.86 %ID/g | tissue uptake at 120 h [7]: 1.91 %ID/g | tissue uptake at 24 h [8]: 0.76 %ID/g | tissue uptake at 72 h [8]: 0.38 %ID/g | tissue uptake at 120 h [8]: 0.21 %ID/g | tissue uptake at 24 h [9]: 1.05 %ID/g | tissue uptake at 72 h [9]: 0.45 %ID/g | tissue uptake at 120 h [9]: 0.53 %ID/g | tissue uptake at 24 h [10]: 0.79 %ID/g | tissue uptake at 72 h [10]: 0.38 %ID/g | tissue uptake at 120 h [10]: 0.21 %ID/g | tissue uptake at 24 h [11]: 2.13 %ID/g | tissue uptake at 72 h [11]: 1.96 %ID/g | tissue uptake at 120 h [11]: 1.86 %ID/g | tissue uptake at 24 h [12]: 26.6 %ID/g | tissue uptake at 72 h [12]: 35 %ID/g | tissue uptake at 120 h [12]: 41.2 %ID/g | tissue to tissue ratio at 24 h [13]: 3.42 | tissue to tissue ratio at 72 h [13]: 12.3 | tissue to tissue ratio at 120 h [13]: 25 | tissue to tissue ratio at 72 h [14]: 91.8 | tissue uptake at 24 h [15]: 7.82 %ID/g | tissue uptake at 72 h [15]: 2.84 %ID/g | tissue uptake at 120 h [15]: 1.6 %ID/g | tissue uptake at 24 h [16]: 0.75 %ID/g | tissue uptake at 72 h [16]: 0.32 %ID/g | tissue uptake at 120 h [16]: 0.24 %ID/g | tissue uptake at 24 h [17]: 2.64 %ID/g | tissue uptake at 72 h [17]: 1.47 %ID/g | tissue uptake at 120 h [17]: 2.04 %ID/g | tissue to tissue ratio at 24 h [18]: 28.3 | tissue to tissue ratio at 72 h [18]: 53.7 | tissue to tissue ratio at 120 h [18]: 55.9 | tissue to tissue ratio at 24 h [19]: 10.1 | tissue to tissue ratio at 72 h [19]: 29.3 | tissue to tissue ratio at 120 h [19]: 54.2 | tissue to tissue ratio at 24 h [20]: 35.8 | tissue to tissue ratio at 120 h [20]: 190 | tissue to tissue ratio at 24 h [21]: 25.9 | tissue to tissue ratio at 72 h [21]: 71.7 | tissue to tissue ratio at 120 h [21]: 122
SMILES: CC(C)NCCCC[C@H](NC(=O)[C@H]1CCC(=O)N[C@@H](CCCCNC(=O)[C@H](CCCCNC(=O)CCCc2ccc(I)cc2)NC(=O)[C@H](CS(=O)(=O)O)NC(=O)CN2CCN(CC(=O)O)CCN(CC(=O)O)CCN(CC(=O)O)CC2)C(=O)N[C@@H](Cc2ccc(O)cc2)C(=O)N[C@@H](CCCCNC(C)C)C(=O)N[C@H](CCCNC(=N)N)C(=O)N[C@@H](Cc2ccc3ccccc3c2)C(=O)N[C@H](C)C(=O)N1)C(N)=O [[^177Lu]Lu-BL34L11, metal not drawn] (K(X1)Y[Lys(iPr)][dR][2Nal][dA][dE][Lys(iPr)]-NH2; lactam N-7)

tissue uptake at 1 h [1]: 0.7 %ID/g | tissue uptake at 1 h (NOD.Cg-Rag1tm1Mom Il2rgtm1Wjl/SzJ (NRG), Biodistribution: Blood): 0.77 %ID/g | tissue uptake at 1 h [2]: 0.56 %ID/g | tissue uptake at 1 h [3]: 0.03 %ID/g | tissue uptake at 1 h [4]: 0.45 %ID/g | tissue uptake at 1 h [5]: 5.66 %ID/g | tissue uptake at 1 h [6]: 12.5 %ID/g | tissue uptake at 1 h [7]: 4.14 %ID/g | tissue uptake at 1 h [8]: 0.19 %ID/g | tissue uptake at 1 h [9]: 0.21 %ID/g | tissue uptake at 1 h [10]: 0.58 %ID/g | tissue uptake at 1 h [11]: 2.44 %ID/g | tissue uptake at 1 h (NOD.Cg-Rag1tm1Mom Il2rgtm1Wjl/SzJ (NRG), Biodistribution: Stomach): 0.12 %ID/g | tissue uptake at 1 h (NOD.Cg-Rag1tm1Mom Il2rgtm1Wjl/SzJ (NRG), Biodistribution: Testes): 0.33 %ID/g | tissue uptake at 1 h [12]: 7.97 %ID/g | tissue to tissue ratio at 1 h [13]: 10.4 | tissue to tissue ratio at 1 h (NOD.Cg-Rag1tm1Mom Il2rgtm1Wjl/SzJ (NRG), Ratio Tumor-to-Bone): 15.5 | tissue to tissue ratio at 1 h (NOD.Cg-Rag1tm1Mom Il2rgtm1Wjl/SzJ (NRG), Ratio Tumor-to-Kidney): 1.41 | tissue to tissue ratio at 1 h [14]: 41.8 | tissue to tissue ratio at 1 h (NOD.Cg-Rag1tm1Mom Il2rgtm1Wjl/SzJ (NRG), Ratio Tumor-to-Pancreas): 38.1
SMILES: CC(C)NCCCC[C@H](NC(=O)[C@@H]1CCSc2c3cccc([N+](=O)[O-])c3cn2[C@@H](CCCCNC(=O)[C@H](CS(=O)(=O)O)NC(=O)CN2CCN(CC(=O)O)CCN(CC(=O)O)CCN(CC(=O)O)CC2)C(=O)CC(Cc2ccc(O)cc2)C(=O)N[C@@H](CCCCNC(C)C)C(=O)N[C@H](CCCNC(=N)N)C(=O)N[C@@H](Cc2ccc3ccccc3c2)C(=O)N[C@H](C)C(=O)N1)C(N)=O (some centres unmarked) [[^68Ga]Ga-3NOPA-BL34L2, metal not drawn]
